What all share (type): cell-based
Assay [1] concerns P. aeruginosa. As to the kind of experiment: broth microdilution (BMD) susceptibility testing, strain from blood sample. The note with it: BMD testing method. How it is done: (§1) The tests were conducted on various antibiotics that are currently used in testing organizations. […] The concentrations shown in FIG. 12 are expressed in μg/mL.
(In general: Broth dilution looks for growth in wells or tubes with falling amounts of substance.)

The subject of assay [2] is P. aeruginosa. Briefly: susceptibility testing using the cell culture test device (DRAST), strain from blood sample. From the text: (§2) Referring first to (a) of FIG. 4, a liquid medium containing a gelling agent is mixed with a biological agent to prepare a mixture solution as a first fluid. The liquid medium may include at least about 95% by weight of water and can be solidified due to the presence of the gelling agent. As the gelling agent, there may be exemplified agar, agarose, gelatin, alginate, collagen or fibrin. The use of agar or agarose is preferred. For example, agar may be used in an amount of 0.5 to 4% by weight in the liquid medium. The liquid medium usually requires no nutrients. In some examples, however, the liquid medium may include nutrients. The liquid medium may be a solution including a medium stimulating the division of particular cells.
(§3) Referring next to (b) of FIG. 4, the mixture solution is provided to a recess 421 formed at the bottom of a first sub-well. The mixture solution may be loaded in an amount corresponding to the volume of the recess of the first sub-well. The volume of the mixture solution loaded into the recess of the first sub-well is preferably from 10 μl to 200 μl, more preferably from 10 μl to 150 μl. If the volume of the mixture solution loaded into the first sub-well is less than the lower limit, the density of cells in the mixture solution is low, making it difficult to observe the cells. Meanwhile, if the volume of the mixture solution loaded into the first sub-well exceeds the upper limit, the mixture solution may overflow into a second sub-well beyond a barrier. […] The micropatterned groove also allows the mixture solution to be well fixed to the desired area. […] Referring to FIG. 5, a micropatterned groove 522 is formed in the well a sample to fix the sample to only the desired area.
(§4) A blood sample positive for bacterial infection is collected and diluted with a medium containing a gelling agent.
(§5) The mixture solution is solidified to form a solid thin film immobilized with the biological agent. When the temperature of the liquid medium drops, the medium is solidified, which restricts the mobility of the biological agent. This immobilization facilitates continuous observation of the motile biological agent.
(§6) As shown in (c) of FIG. 4, a second sub-well 430 including a bioactive agent in a solid form is provided with a solvent capable of dissolving the bioactive agent. When a bioactive agent is absent in the second sub-well 430, a solution containing a bioactive agent can be provided to the second sub-well 430. Herein, the bioactive agent may include a substance selected from antibiotics, anticancer agents, drugs such as immunosuppressants, nutrients, cellular secretions, signal transducers, viruses, cells, micro RNAs, proteins, antigens, antibodies, and DNA.

In a further assay the test system is P. aeruginosa ATCC 27853. As to the kind of experiment: antibiotic susceptibility testing using the cell culture test device (DRAST), reference strain. The note with it: Pseudomonas aeruginosa, ATCC27853, observed until 6 h.
Source text: as §2
(§7) Referring next to (b) of FIG. 4, the mixture solution is provided to a recess 421 formed at the bottom of a first sub-well. The mixture solution may be loaded in an amount corresponding to the volume of the recess of the first sub-well. The volume of the mixture solution loaded into the recess of the first sub-well is preferably from 10 μl to 200 μl, more preferably from 10 μl to 150 μl. If the volume of the mixture solution loaded into the first sub-well is less than the lower limit, the density of cells in the mixture solution is low, making it difficult to observe the cells. […]

Another assay relates to E. faecalis ATCC 29212. The assay is described as above. Particulars: Enterococcus faecalis, ATCC29212, observed until 6 h.
Source text: as §2, §7

In assay [3] the test system is Enterobacter aerogenes. Briefly: broth microdilution (BMD) susceptibility testing, strain from blood sample. Particulars: E. aerogenes from blood sample; BMD testing method. How it is done:
as §1

Assay [4] relates to Enterobacter aerogenes. Briefly: susceptibility testing using the cell culture test device (DRAST), strain from blood sample. Particulars: E. aerogenes from blood sample.
Source text: as §2, §3, §4, §5, §6

Values after ≈ are worked out from the molar mass of the structure shown.

Usually MIC stands for the lowest concentration that inhibits growth of the organism. Low values mean greater potency, high ones weaker potency.

Turning to `C[C@H]1[C@H](NC(=O)/C(=N\OC(C)(C)C(=O)O)c2csc(N)n2)C(=O)N1S(=O)(=O)O` [aztreonam], the susceptibility category entry in the assay on P. aeruginosa [1] was “I”; in the assay with P. aeruginosa [2] it was “susceptible”. In addition, the MIC in the assay on P. aeruginosa ATCC 27853 came out at 8 µg/mL (≈ 18.4 µM).

Turning to `CO/N=C(\C(=O)N[C@@H]1C(=O)N2C(C(=O)O)=C(COC(C)=O)CS[C@H]12)c1csc(N)n1` [cefotaxime], the results for the susceptibility category entry in the assay on P. aeruginosa [1] and in the assay on P. aeruginosa [2] were “I” and “susceptible”, respectively.

`CN(C)[C@@H]1C(O)=C(C(N)=O)C(=O)[C@@]2(O)C(O)=C3C(=O)c4c(O)cccc4[C@@](C)(O)[C@H]3C[C@@H]12` [tetracycline] displayed an MIC in the assay on E. faecalis ATCC 29212 of 8 µg/mL (≈ 18 µM).

Consider `CC1(C)S[C@@H]2[C@H](NC(=O)[C@H](C(=O)O)c3ccsc3)C(=O)N2[C@H]1C(=O)O` [ticarcillin], for which the susceptibility category entry with P. aeruginosa [1] is listed as “I”; in the assay on P. aeruginosa [2], “susceptible”.

In the case of colistin, the susceptibility category result in the assay on Enterobacter aerogenes [3] is recorded as “S”; with P. aeruginosa [1], “susceptible”; with Enterobacter aerogenes [4], “I”; in the assay on P. aeruginosa [2] it was “I”.

The record behind these values is patent US11377679B2, “Multi-well-based cell culture test device for rapid antibiotic susceptibility testing” (priority 2016, dated 2022).
